Measured values from patent US20050266509A1, “Interaction of NMDA receptor with protein tyrosine phosphatase” (AGY Therapeutics, Inc., priority 2003, published 2005).

Columns and labels:
[1] = biological target: T1, PTPMEG (Homo sapiens, UniProt P29074); assay: TR-FRET phosphatase activity assay, PTPMEG; format: biochemical
T1 construct: Asp-Ser-6xHis (N); made in house; host or cells: E. coli BL21(DE3)
T1 sequence (P29074 655-911 limits assumed): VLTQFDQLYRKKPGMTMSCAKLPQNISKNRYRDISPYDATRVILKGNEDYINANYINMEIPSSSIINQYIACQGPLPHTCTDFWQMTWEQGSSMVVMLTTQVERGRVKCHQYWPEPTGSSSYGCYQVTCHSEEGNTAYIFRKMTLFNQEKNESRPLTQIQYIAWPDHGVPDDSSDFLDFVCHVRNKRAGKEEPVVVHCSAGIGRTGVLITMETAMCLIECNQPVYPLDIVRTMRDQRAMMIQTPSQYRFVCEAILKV
Method: Expression and Purification of PTPMEG The DNA sequence encoding the C-terminal 326 residues of PTPMEG (phosphatase domain) was subcloned into the pET-17b vector (Novagen) between the Ndel and Xhol restriction sites. An N-terminal tag consisting of Asp-Ser-6×His was incorporated at the beginning of the protein sequence. Protein expression was performed in BL21(DE3) cells at 37° C. with a 4 hour 0.5 mM IPTG induction. The cells were harvested by centrifugation and stored at −80° C. until needed for protein purification. Protein purification consisted of cell lysis by sonication, immobilized metal affinity chromatography (IMAC) on a Ni^2+-NTA column (Qiagen), followed by hydrophobic interaction chromatography (HIC) on a phenyl sepharose column (Amersham Pharmacia Biotech) and/or ion exchange chromatography (IEC) on a Q sepharose column (Amersham Pharmacia Biotech). The purified 38.3 kDa protein was buffer exchanged into 50 mM HEPES, pH 7.5 and stored at −80° C.
Phosphatase Buffer: 50 mm HEPES, pH 8; 1 mM DDT; 2 mM EDTA; 0.01% Brij solution; 10 mM MgCl2. […]
The plates are then placed in the plate reader, an Analyst HT. […] Fluorescence resonance energy transfer (FRET) from Eu-Ab to APC will only occur when they are in close proximity. […]

[2] = biological target: T2, PTPIB (Homo sapiens, UniProt P18031); assay: FRET phosphatase assay, PTPIB; format: biochemical
T2 sequence (P18031 1-435): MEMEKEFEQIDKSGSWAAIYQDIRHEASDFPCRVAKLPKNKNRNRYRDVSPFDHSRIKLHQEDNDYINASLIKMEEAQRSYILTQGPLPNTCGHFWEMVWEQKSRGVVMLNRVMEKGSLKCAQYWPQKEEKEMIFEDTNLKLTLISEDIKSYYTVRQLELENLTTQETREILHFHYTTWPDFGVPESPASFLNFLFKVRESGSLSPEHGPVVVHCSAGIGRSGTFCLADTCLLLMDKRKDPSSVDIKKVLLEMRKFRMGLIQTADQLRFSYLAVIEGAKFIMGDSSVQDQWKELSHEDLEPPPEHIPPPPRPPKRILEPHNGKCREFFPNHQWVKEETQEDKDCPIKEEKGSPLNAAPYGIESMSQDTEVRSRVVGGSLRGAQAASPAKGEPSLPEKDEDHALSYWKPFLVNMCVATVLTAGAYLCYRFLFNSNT
Method: For the enzyme activity assay, 2.5 μl of compound, 12.5 μl of enzyme, and 10 μl of substrate (separated by air gaps) are added to columns 3 through 24 by the Biomek FX in a single dispense. After the dispense, the tips are washed with DMSO and water for re-use between each quadrant. Once the assay plates are set up, they are incubated at 27° C. for 45 minutes. Then 20 μl of detection buffer is added to stop the reaction and to allow the Europium antibody (Eu-Ab) and streptavidin-APC to bind to the substrate.
The plates are then placed in the plate reader, an Analyst HT. Excitation light at 360 nm is used to excite the Europium antibody with an emission at 620 nm. Fluorescence resonance energy transfer (FRET) from Eu-Ab to APC will only occur when they are in close proximity. Therefore, when an APC emission is observed at 665 nm the enzyme has been inhibited from removing the phosphate group from the substrate. The FRET assay is time-resolved (TR), where there is a delay between excitation light and collection of emission signals. This reduces the amount of stray light created by short-lived fluorescing molecules. The Analyst HT measures APC and Europium emission signals and calculates the ratio between the two intensities. Typical intensities for the Europium is ˜2000 and APC is ˜600.
The following compounds were tested by FRET against the listed phosphatases, and the IC50 were obtained. […]

**Q.** `CCOC(=O)C(=CC1=C/C(=C/N(C)C)C(=O)O1)C(=O)OCC` [AGY- 0046293] was tested. Which IC50 [1] did it give?
**A.** 0.32 µM

**Q.** What about the IC50 [2] of the same compound?
**A.** 41.1 µM
